Converted amounts (≈) assume the structure as drawn.
Details: buffer; pH 7.4; 200.0 µM

SMILES	solubility kinetic [mg/mL]
O=C(/C=C/c1ccccc1Cl)OCC(=O)N1CCCC1	> 0.0441
CCCC(=O)Nc1c(-c2cccc(OC)c2)c(=O)c2ccccc2n1C	> 0.0526
CC(=O)C(CC(=O)N1CCCC1)C(=O)Nc1ccc(Cl)cc1 (stereo not given)	> 0.0484
Cc1nn(C)c(Cl)c1/C=N/OC(=O)c1ccccc1	> 0.0417
COc1ccccc1N1CCNC(C)C1=O.Cl (stereo not given)	0.0334
Cc1ccc(C(=O)NCCc2c[nH]c3ccccc23)s1	> 0.0427
CCOc1ccc(-n2c([O-])cc(=O)[nH]c2=O)cc1.[NH4+]	0.0352
Cc1ccc(C)c(S(=O)(=O)N2CCN(C(=O)[C@@H]3CCCN3C(=O)c3cccs3)CC2)c1	0.0404 (≈ 87.5 µM)
Cc1ccccc1C(=O)N1CCC(C(=O)Oc2ccc(C#N)cc2)CC1	> 0.0523
Cc1ccccc1C(=O)NC(=S)NCc1cccnc1	> 0.0428
C=CCN1C(=O)C(C)NC1=S (stereo not given)	> 0.0255
Cc1cccc(NC(=O)c2ccco2)c1C	0.0318 (≈ 148 µM)
CN=c1sc(C(=O)Nc2ccccc2)c(C)n1C	0.0353 (≈ 135 µM)
CC1(C)C(C(=O)N2CCN(c3ccc(Cl)cc3)CC2)C1(C)C	0.0005 (≈ 1.56 µM)
Cc1ccnc2nc(C(=O)OCC(=O)c3ccccc3)nn12	> 0.0444
O=C(CN1CCN(Cc2ccccc2F)C1=O)NCC1CCCO1 (stereo not given)	> 0.0503
Cc1ccc(CC(=O)NCC(O)c2ccccc2)cc1 (stereo not given)	0.0334 (≈ 124 µM)
Cc1ccc([N+](=O)[O-])cc1N=C1C(=O)Nc2ccccc21	0.0374 (≈ 133 µM)
CC(C)CC(=O)Nc1ccc(C(=O)Nc2cccc(O)c2)cc1	0.0267 (≈ 85.5 µM)
Nn1c(C2CCC2)nc2ccccc2c1=O	> 0.0323
CSc1ncccc1C(=O)OCC(=O)Nc1ccc(Cl)cn1	0.0036 (≈ 10.7 µM)
CCN(CC)CC(=O)Nc1ccc(C)cc1C(=O)c1ccccc1	> 0.0487
COc1ccccc1N1CCN(C2CCC(C)CC2)CC1 (stereo not given)	0.0317 (≈ 110 µM)
CN(C(=O)CN1CCN(c2ccccc2F)CC1)C1CCCc2ccccc21 (stereo not given)	> 0.0572

SMILES	solubility kinetic [mg/mL]
COCCNC(=S)c1ccc(Br)cc1	0.0345 (≈ 126 µM)
COc1ccc(-c2nc(=S)n3ccsc3n2)cc1OC	0.0044 (≈ 14.4 µM)
Cc1onc(-c2c(Cl)cccc2Cl)c1CO/N=C(\C#N)c1c(Cl)cccc1Cl	< 0.0003
Cc1ccc(N2C(=O)CN(Cc3cccs3)C2=S)cc1C	< 0.0003
COc1cc(CC(=O)Nc2nc(C)cs2)cc(OC)c1OC	0.0429 (≈ 133 µM)
O=C(c1cccc2nc3ccccc3nc12)N1CCOCC1	0.0409 (≈ 139 µM)
COc1ccc2nc(SCC(=O)C(C)(C)C)[nH]c2c1	0.0309 (≈ 111 µM)
CCN(CC)C(=O)Cc1ccccc1	> 0.0287
Cc1ccc(C(=O)OCN2C(=O)c3ccccc3C2=O)c(O)c1	< 0.0007
CCCn1c(NC(=O)c2ccc([N+](=O)[O-])o2)nc2ccccc21	0.0104 (≈ 33.1 µM)
CCOC(=O)Cn1nc(C)n(-c2ccc(F)cc2)c1=O	> 0.0419
COc1ccc(C2(O)C(=O)Nc3ccc(C)cc32)cc1OC (stereo not given)	> 0.0449
Cc1nn(CC(=O)NCc2cccc(F)c2)c(=O)c2cccn12	> 0.0471
Cc1onc(-c2ccccc2)c1-c1nc2cc(Cl)ccc2c(=O)o1	0.0037 (≈ 10.9 µM)
N#Cc1c(N2CCCC(O)C2)nc(N)c2c(N)nc3c(c12)CC(=O)N3C12CC3CC(CC(C3)C1)C2 (stereo not given)	0.0024 (≈ 5.07 µM)
Cc1ccccc1-c1nnc(SC(C)C(=O)NC2CCCC2)o1 (stereo not given)	> 0.0497
CC(=O)Nc1ccccc1NS(=O)(=O)c1ccccc1[N+](=O)[O-]	0.0474 (≈ 141 µM)
NS(=O)(=O)c1ccc(CCNC(=O)c2ccc(Cl)c(S(=O)(=O)N3CCCCC3)c2)cc1	0.0121 (≈ 24.9 µM)
Cc1cc([N+](=O)[O-])ccc1NC(=O)c1csc(C)c1C	0.0011 (≈ 3.79 µM)
C/C(=N\OCC(=O)Nn1c(C)nc2ccccc2c1=O)c1cccs1	> 0.0535
Clc1ccccc1CSc1nncn1-c1cccnc1	> 0.0454
CCOc1cc(OCC)cc(C(=O)NCc2ccco2)c1	0.0055 (≈ 19 µM)
O=S(=O)(Nc1cccc(S(=O)(=O)N2CCCC2)c1)c1ccc(Cl)cc1	> 0.0601
COc1ccc(S(=O)(=O)N2CCN(Cc3cccnc3)CC2)cc1	> 0.0521

SMILES	solubility kinetic [mg/mL]
COCCCn1c(SCC(=O)NC2CCCC2)nnc1-c1ccncc1	> 0.0563
C#CCOc1ccc(/C=C2/C(=O)ON=C2C)cc1OCC	0.0271 (≈ 95 µM)
CCC(=O)c1ccc(OCC(=O)NC2(C#N)CCCCC2)cc1	0.0454 (≈ 144 µM)
COc1cc(/C=C/C(=O)OCC(=O)NC(=O)NC(C)C)ccc1O	> 0.0505
C=CCNc1nc(-c2ccc3c(c2)OCCO3)cs1	0.0163 (≈ 59.4 µM)
COc1cccc(C(=O)N2CCN(c3ccccn3)CC2)c1	0.0438 (≈ 147 µM)
CC(=O)Nc1c(C(=O)Nc2ccc3c(c2)OCO3)oc2ccccc12	0.0032 (≈ 9.46 µM)
O=C(COc1cc(F)ccc1[N+](=O)[O-])NCC1CCCO1 (stereo not given)	> 0.0447
COc1ccc(C(=O)NC2CCSc3ccccc32)cc1F (stereo not given)	0.0029 (≈ 9.14 µM)
O=C(Nc1ccc(-c2cnco2)cc1)c1ccc(F)cc1F	0.0008 (≈ 2.66 µM)
CCC1CCCCN1C(=S)NC(=O)c1ccco1 (stereo not given)	> 0.04
Cc1cccc(OCC(=O)NC2CCCC2)c1	0.0315 (≈ 135 µM)
COc1ccccc1CC(=O)N(Cc1ccccc1)c1cccc(C)c1	0.0089 (≈ 25.8 µM)
COc1cccc(/C=N/c2nc3ccccc3n2C)c1O	0.0231 (≈ 82.1 µM)
CCOc1cc(/C=C2\C(=O)ON=C2c2ccccc2)ccc1OC	0.0461 (≈ 143 µM)
C=C1C(C(=O)Nc2ccc(OC)cc2)C1C(=O)Nc1ccc(OC)cc1 (stereo not given)	0.0006 (≈ 1.7 µM)
Cc1cc(C(=O)NC(=S)Nc2cccc(C(=O)O)c2C)ccc1[N+](=O)[O-]	> 0.056
O=c1c(Cc2ccccc2)c(O)ccn1Cc1ccc2c(c1)OCO2	0.0027 (≈ 8.05 µM)
CN1CCN2c3ccccc3Cc3ccccc3C2C1.Cl (stereo not given)	> 0.0451
COc1ccc(CC(=O)Nc2ccccc2N2CCCC2)cc1OC	> 0.0511
Cc1cccc(C)c1NC(=O)COC(=O)c1cc(S(=O)(=O)Nc2ccc(Cl)cc2)ccc1O	0.0115 (≈ 23.5 µM)
CC[N+](CC)(CC)CC.[Cl-]	0.0203
O=C(NNC(=O)C12CC3CC(CC(C3)C1)C2)c1ccccc1F	> 0.0475
O=C(COc1ccc(F)cc1Br)NCC1COc2ccccc2O1 (stereo not given)	0.0175 (≈ 44.2 µM)

SMILES	solubility kinetic [mg/mL]
O=C(Nc1ccc(N2CCCCC2)cc1)c1ccc2ccccc2n1	< 0.0002
Cc1noc(C)c1S(=O)(=O)N1CCC(C(N)=O)CC1	> 0.0431
CC(=O)Nc1ccc(NS(=O)(=O)c2ccc(Cl)s2)cc1	> 0.0496
Cc1ccc(-c2cc(C(=O)N3CCOCC3)no2)cc1	> 0.0408
Cc1ccc2nc(SCC(=O)c3ccc(O)cc3O)[nH]c2c1	0.0064 (≈ 20.4 µM)
COc1cc2ccccc2cc1C(=O)Nc1cc(C)ccn1	0.0042 (≈ 14.4 µM)
CCc1cccc2c1NC1(CCCC1)CC2C.Cl (stereo not given)	< 0.0006
O=C(O)c1ccccc1C(=O)NC1=NN(c2ccccc2)CC1	> 0.0464
Cn1ccc(=S)c2ccccc21	0.0252 (≈ 144 µM)
COc1ccc(/C=C/C(=O)NC(=S)N2CCOCC2)cc1	> 0.046
CCOC(=O)CN1C(=O)CC(c2ccccc2)C1=O (stereo not given)	> 0.0392
CCOC(=O)NC(=S)Nc1ccc(OC)cc1	0.0256 (≈ 101 µM)
Cc1ccc(S(=O)(=O)/N=C(\N)c2ccc(F)cc2)cc1	0.0381 (≈ 130 µM)
CCc1ccc(C(=O)OCC(=O)NC2CCCC2)cc1	0.0116 (≈ 42.1 µM)
O=C1NC2=C(C(=O)OC2)C(c2ccc(OC(F)(F)F)cc2)N1 (stereo not given)	> 0.0471
COC(=O)CN1C(=O)COc2ccc(S(=O)(=O)N3CCCCCC3)cc21	0.0524 (≈ 137 µM)
Cc1ccc(C(=O)NCC(=O)Nc2ccc(Cl)cc2)s1	0.0046 (≈ 14.9 µM)
CC(=O)c1ccc(NC(=S)NN2C(C)CCCC2C)cc1 (stereo not given)	> 0.0458
CCC(=O)NC1CC2CCCC(C1)N2Cc1ccc(C)cc1 (stereo not given)	> 0.0451
Cn1cc(SCC(=O)NC2CCCCC2)c2ccccc21	0.0095 (≈ 31.4 µM)
CCN1CCc2c(OCC(=O)Nc3cccc(C)c3)cccc2C1=O	> 0.0508
Cn1c(=O)n(C)c2cc3[nH]cnc3cc21	> 0.0303
CN(C)c1ccc(NC(=O)C(=O)NCCOc2ccccc2)cc1	0.0007 (≈ 2.14 µM)
O=[N+]([O-])c1ccc(Sc2n[nH]c(-c3ccncc3)n2)nc1	> 0.045

SMILES	solubility kinetic [mg/mL]
Cn1c(=O)oc2cc(S(=O)(=O)NC3CCCCC3)ccc21	> 0.0466
O=c1cc(CO)oc(C(Nc2ccccn2)c2ccccc2Cl)c1O (stereo not given)	> 0.0538
CCc1ccc(/C=C2\SC(N3CCCC3)=NC2=O)cc1	0.0128 (≈ 44.7 µM)
CCN1CCN(C(=S)NC(=O)c2cccc(Br)c2)CC1	> 0.0534
CSc1ccccc1C(=O)N(C)Cc1ccccc1	> 0.0407
CCc1cc2ccc(C)cc2nc1SCC(=O)NC1CCCC1	0.0012 (≈ 3.65 µM)
Fc1cccc(Nc2ncnc3sccc23)c1	0.0057 (≈ 23.2 µM)
Cl.NC(CCC(=O)O)C12CC3CC(CC(C3)C1)C2 (stereo not given)	> 0.0411
O=C1NC(=Nc2ccccc2)S/C1=C/c1cccnc1	0.0012 (≈ 4.27 µM)
CC1=NN(C(=O)c2ccccc2C)C(O)(c2ccc(Cl)cc2)C1 (stereo not given)	> 0.0493
O=C(CSc1cccs1)Nc1ccc(Cl)cc1	0.0365 (≈ 129 µM)
O=C(Nc1cc(=O)[nH]c(=O)[nH]1)c1cc(Cl)ccc1Cl	> 0.045
CN(C)c1cc(Nc2ccc(O)cc2)c([N+](=O)[O-])c2nonc12	0.0007 (≈ 2.22 µM)
CCc1cccc2c1NC(=O)C2(O)N1CCCC(C)C1 (stereo not given)	0.0385 (≈ 140 µM)
COC(=O)c1cc(C(=O)OC)n(Cc2ccc(C)cc2)c1C	0.0289 (≈ 95.9 µM)
CCc1ccc(NC(=O)NCCN2CCCCC2)cc1	> 0.0413
O=C1NC(=O)/C(=C/c2ccc(-c3cc(C(=O)O)ccc3Cl)o2)S1	> 0.0525
COCCn1c(SCC(=O)Nc2cccnc2Cl)nc2ccccc21	0.0074 (≈ 19.6 µM)
COc1cccc(CC(=O)Nc2nc3c(s2)C(=O)CC(C)(C)C3)c1	0.0018 (≈ 5.23 µM)
CC(C)(CNCc1ccccc1)NS(=O)(=O)c1ccc(Cl)cc1	> 0.0529
CCCCN(C(=O)C1CC1)C1CCS(=O)(=O)C1 (stereo not given)	> 0.0389
CSc1ccccc1NC(=S)NC1CCCC1	> 0.04
COc1ccc2nc(N(CCN(C)C)C(=O)c3ccc4ccccc4c3)sc2c1.Cl	0.0249
Cc1cc(C)c(S(=O)(=O)Nc2ccc(Cl)cn2)c(C)c1	0.0018 (≈ 5.79 µM)

— PubChem BioAssay AID1996
